Consider 20 compounds from patent publication US20090209528A1, “SUBSTITUTED TETRAHYDROISOQUINOLINE COMPOUND, THEIR PREPARATION AND USE IN MEDICAMENTS” (LABORATORIOS DEL DR. ESTEVE S.A., priority 2006, published 2009).

Structures can show the parent of a compound that is named as a salt.

For this assay, the target named is T1, 5HT6-human recombinant receptor (Homo sapiens, UniProt P50406).
T1 construct: purchased Receptor Biology; host or cells: HEK-293 cell membranes
The assay can be described thus: Binding to serotonin receptor 5-HT6 ([3H]-LSD displacement). The settings on record: radioligand [3H]-LSD 2.7 nM; for inhibition at 0.01 µM / inhibition at 0.1 µM: 1 h; for inhibition at 0.01 µM: compound at 10 nM; for inhibition at 0.1 µM: compound at 100 nM; for Ki: membranes of HEK-293 cells expressing the receptor, 60 min, 37° C. Here is the method:
Cell membranes of HEK-293 cells expressing the 5HT6-human recombinant receptor were supplied by Receptor Biology. In said membranes the receptor concentration is 2.18 pmol/mg protein and the protein concentration is 9.17 mg/ml. The experimental protocol follows the method of B. L. Roth et al. [B. L. Roth, S. C. Craigo, M. S. Choudhary, A. Uluer, F. J. Monsma, Y. Shen, H. Y. Meltzer, D. R. Sibley: Binding of Typical and Atypical Antipsychotic Agents to 5-Hydroxytryptamine-6 and Hydroxytryptamine-7 Receptors. The Journal of Pharmacology and Experimental Therapeutics, 1994, 268, 1403] with the following slight changes. The respective part of the literature description is hereby incorporated by reference and forms part of the disclosure.
The commercial membrane is diluted (1:40 dilution) with the binding buffer: 50 mM Tris-HCl, 10 mM MgCl2, 0.5 mM EDTA (pH 7.4). The radioligand used is [^3H]-LSD at a concentration of 2.7 nM with a final volume of 200 μl. Incubation is initiated by adding 100 μl of membrane suspension, (≈22.9 μg membrane protein), and is prolonged for 60 minutes at a temperature of 37° C. The incubation is ended by fast filtration in a Brandel Cell Harvester through fiber glass filters made by Schleicher & Schuell GF 3362 pretreated with a solution of polyethylenimine at 0.5%. The filters are washed three times with three milliliters of buffer Tris-HCl 50 mM pH 7.4. The filters are transferred to flasks and 5 ml of Ecoscint H liquid scintillation cocktail are added to each flask. The flasks are allowed to reach equilibrium for several hours before counting with a Wallac Winspectral 1414 scintillation counter. Non-specific binding is determined in the presence of 100 μM of serotonin. Tests were made in triplicate. The inhibition constants (Ki, nM) were calculated by non-linear regression analysis using the program EBDA/LIGAND described in Munson and Rodbard, Analytical Biochemistry, 1980, 107, 220, the respective part of which is hereby incorporated by reference and forms part of the disclosure.

T1 sequence (P50406 whole entry): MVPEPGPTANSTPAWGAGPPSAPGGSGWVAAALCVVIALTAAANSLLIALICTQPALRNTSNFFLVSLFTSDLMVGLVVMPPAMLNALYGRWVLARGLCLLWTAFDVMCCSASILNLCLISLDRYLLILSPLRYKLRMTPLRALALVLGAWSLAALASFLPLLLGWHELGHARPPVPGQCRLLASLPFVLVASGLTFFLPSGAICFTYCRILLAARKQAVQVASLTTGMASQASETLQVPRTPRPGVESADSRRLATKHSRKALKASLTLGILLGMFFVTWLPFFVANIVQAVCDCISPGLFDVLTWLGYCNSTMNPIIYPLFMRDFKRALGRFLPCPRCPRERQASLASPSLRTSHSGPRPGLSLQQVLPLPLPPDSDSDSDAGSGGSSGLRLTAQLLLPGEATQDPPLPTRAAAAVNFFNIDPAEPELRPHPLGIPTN

With `Cc1c(S(=O)(=O)Nc2ccc3c(c2)CCNC3)sc2ccc(Cl)cc12` [Example 4, 5-Chloro-3-methyl-benzo[b]thiophene-2-sulfonic acid (1,2,3,4-tetrahydro-isoqui-nolin-6-yl)-amide hydrochloride], the inhibition at 0.01 µM turned out to be 27.3% and the inhibition at 0.1 µM amounted to 71.1%.

Regarding `CN1CCc2cc(NS(=O)(=O)c3ccc4ccccc4c3)ccc2C1` [Example 9, Naphthalene-2-sulfonic acid (2-methyl-1,2,3,4-tetrahydro-isoquinolin-6-yl)-amide hydrochloride], the inhibition at 0.01 µM was 60.1%, the inhibition at 0.1 µM was determined as 86.5% and the Ki turned out to be 9.2 ± 1.2 nM.

On to `Cc1c(S(=O)(=O)Nc2ccc3c(c2)CNCC3)sc2ccc(F)cc12` [Example 64, 5-Fluoro-3-methyl-benzo[b]thiophene-2-sulfonic acid (1,2,3,4-tetrahydro-isoquinolin-7-yl)-amide hydrochloride], for which the inhibition at 0.01 µM is 41.9%, the inhibition at 0.1 µM came out at 66.9% and the Ki turned out to be 55.8 ± 24.1 nM.

For the compound `O=S(=O)(Nc1ccc2c(c1)CNCC2)c1csc2ccccc12` [Example 78, Benzo[b]thiophene-3-sulfonic acid (1,2,3,4-tetrahydro-isoquinolin-7-yl)-amide hydrochloride], the inhibition at 0.01 µM was 77.5%, the inhibition at 0.1 µM was 85.8% and the Ki was determined as 2.1 nM.

On to `O=S(=O)(Nc1ccc2c(c1)CCNC2)c1csc2ccccc12` [Example 29, Benzo[b]thiophene-3-sulfonic acid (1,2,3,4-tetrahydro-isoquinolin-6-yl)-amide hydrochloride], for which the inhibition at 0.01 µM turned out to be 88%, the inhibition at 0.1 µM stood at 89.6% and the Ki worked out at 5.3 ± 0.4 nM.

In the case of `CCc1ccc(OC)c(S(=O)(=O)Nc2ccc3c(c2)CCNC3)c1` [Example 35, 5-Ethyl-2-methoxy-N-(1,2,3,4-tetrahydro-isoquinolin-6-yl)-benzene sulfonamide hydrochloride], the inhibition at 0.01 µM is 48.8%, the inhibition at 0.1 µM was determined as 81.6% and the Ki worked out at 14.2 ± 1.5 nM.

As for `O=S(=O)(Nc1ccc2c(c1)CNCC2)c1ccccc1-c1ccccc1` [Example 62, Biphenyl-2-sulfonic acid (1,2,3,4-tetrahydro-isoquinolin-7-yl)-amide hydrochloride], the inhibition at 0.01 µM was determined as 89%, the inhibition at 0.1 µM came out at 86.4% and the Ki came to 2.4 ± 0.5 nM.

Turning to `O=S(=O)(Nc1ccc2c(c1)CNCC2)c1cccc2c(Cl)cccc12` [Example 154, 5-Chloro-naphthalene-1-sulfonic acid (1,2,3,4-tetrahydro-isoquinolin-7-yl)-amide Hydrochloride], the inhibition at 0.01 µM turned out to be 65.7%, the inhibition at 0.1 µM was determined as 85.1% and the Ki turned out to be 39.7 ± 7.4 nM.

In the case of `O=S(=O)(Nc1ccc2c(c1)CCNC2)c1ccc(Cl)c2ccccc12` [Example 31, 4-Chloro-naphthalene-1-sulfonic acid (1,2,3,4-tetrahydro-isoquinolin-6-yl)-amide hydrochloride], the inhibition at 0.01 µM is 72.3%, the inhibition at 0.1 µM was determined as 85.5% and the Ki amounted to 5.7 nM.

As for `CN1CCc2cc(NS(=O)(=O)c3c(Cl)nc4sccn34)ccc2C1` [Example 19, 6-Chloro-imidazo[2,1-b]thiazole-5-sulfonic acid (2-methyl-1,2,3,4tetrahydro-isoquinolin-6-yl)-amide hydrochloride], the inhibition at 0.01 µM amounted to 74.2%, the inhibition at 0.1 µM was 90% and the Ki came out at 2.3 ± 0.2 nM.

Take `Cc1ccc(S(=O)(=O)Nc2ccc3c(c2)CCN(C(=O)OC(C)(C)C)C3)c2ccccc12` [Example 15, 6-(4-Methyl-naphthalene-1-sulfonylamino)-3,4-dihydro-1H-isoquinoline-2-carboxylic acid tert-butyl ester]: the inhibition at 0.01 µM was -5% and the inhibition at 0.1 µM was found to be 8.2%.

As for `O=S(=O)(Nc1ccc2c(c1)CNCC2)c1ccc(Cl)c2ccccc12` [Example 81, 4-Chloro-naphthalene-1-sulfonic acid (1,2,3,4-tetrahydro-isoquinolin-7-yl)-amide hydrochloride], the inhibition at 0.01 µM was 70.3%, the inhibition at 0.1 µM was found to be 84.1% and the Ki came to 9.4 ± 3.7 nM.

On to `Cc1ccc(S(=O)(=O)Nc2ccc3c(c2)CCNC3)c2ccccc12` [Example 6, 4-Methyl-naphthalene-1-sulfonic acid (1,2,3,4-tetrahydro-isoquinolin-6-yl)amide hydrochloride], for which the inhibition at 0.01 µM stood at 60.1%, the inhibition at 0.1 µM came to 88.8% and the Ki was 14.5 ± 3.8 nM.

On to `O=S(=O)(Nc1ccc2c(c1)CCNC2)c1ccccc1-c1ccccc1` [Example 22, Biphenyl-2-sulfonic acid (1,2,3,4-tetrahydro-isoquinolin-6-yl)-amide hydrochloride], for which the inhibition at 0.01 µM was 79.7%, the inhibition at 0.1 µM stood at 90.8% and the Ki amounted to 12.3 ± 6 nM.

Consider `CC(C)(C)OC(=O)N1CCc2cc(NS(=O)(=O)c3cccnc3)ccc2C1` [Example 18, 6-(Pyridine-3-sulfonylamino)-3,4-dihydro-1H-isoquinoline-2-carboxylic acid tert-butyl ester], for which the inhibition at 0.01 µM is -0.8% and the inhibition at 0.1 µM was found to be 6.8%.

`O=S(=O)(Nc1ccc2c(c1)CCNC2)c1c(Cl)nc2sccn12` [Example 10, 6-Chloro-imidazo[2,1-b] thiazole-5-sulfonic acid (1,2,3,4,- tetrahydro-isoquinolin-6-yl)-amide hydrochloride]: the inhibition at 0.01 µM stood at 85.8%, the inhibition at 0.1 µM is 94.6% and the Ki is 1.3 ± 0.12 nM.

For the compound `CC(C)(C)OC(=O)N1CCc2cc(NS(=O)(=O)c3ccc4ccccc4c3)ccc2C1` [Example 16, 6-(Naphthalene-2-sulfonylamino)-3,4-dihydro-1H-isoquinoline-2-carboxylic acid tert-butyl ester], the inhibition at 0.01 µM came out at 5.6% and the inhibition at 0.1 µM was 10.6%.

For the compound `O=S(=O)(Nc1ccc2c(c1)CCNC2)c1ccc2ccccc2c1` [Example 8, Naphthalene-2-sulfonic acid (1,2,3,4-tetrahydro-isoquinolin-6-yl)-amide hydrochloride], the inhibition at 0.01 µM came out at 37.4% and the inhibition at 0.1 µM amounted to 74.6%.

With `CN(c1ccc2c(c1)CC[N+](C)(C)C2)S(=O)(=O)c1cccc2ccccc12` [Example 2, 2,2-Dimethyl-6-[methyl-(naphthalene-1-sulfonyl)-amino]-1,2,3,4-tetrahydro isoquinolinium iodide], the inhibition at 0.01 µM was 17% and the inhibition at 0.1 µM is 19.6%.

For the compound `O=S(=O)(Nc1ccc2c(c1)CNCC2)c1ccc(F)c2ccccc12` [Example 80, 4-Fluoro-naphthalene-1-sulfonic acid (1,2,3,4-tetrahydro-isoquinolin-7-yl)-amide hydrochloride], the inhibition at 0.01 µM amounted to 70%, the inhibition at 0.1 µM is 83.6% and the Ki is 6.5 ± 0.5 nM.

One may read the inhibition as the change of the read-out against control, counted positive when it falls. One may read the Ki as the dissociation constant of the complex between target and ligand, obtained from inhibition or displacement.
